Experimental data: article PMC5218480 (PLoS ONE, 2017)

Test system: MV-4-11 cells
Assay: Gene expression microarray analysis (Affymetrix PrimeView) and GSEA
Type: cell-based, human
Parameters: RFU PODN (11730768_x_at) / Fold change /veh PODN (11730768_x_at) / RFU LINC00158 (11744669_a_at) / Fold change /veh LINC00158 (11744669_a_at) / RFU DUSP10 (11751237_a_at) / Fold change /veh DUSP10 (11751237_a_at) / RFU ID3 (11757404_x_at) / Fold change /veh ID3 (11757404_x_at) / RFU PLEKHG5 (11737974_s_at) / Fold change /veh PLEKHG5 (11737974_s_at) / RFU LRRC4B (11730491_at) / Fold change /veh LRRC4B (11730491_at) / RFU GIMAP4 (11747438_a_at) / Fold change /veh GIMAP4 (11747438_a_at) / RFU KRT8 (11758183_x_at) / Fold change /veh KRT8 (11758183_x_at) / RFU CNN1 (11734310_a_at) / Fold change /veh CNN1 (11734310_a_at) / RFU VPS37D (11726825_at) / Fold change /veh VPS37D (11726825_at) / RFU C10orf10 (11716522_x_at) / Fold change /veh C10orf10 (11716522_x_at) / RFU KIR2DL2 /// KIR2DL4 /// KIR2DL5A /// KIR2DL5B /// KIR2DS1 /// KIR2DS2 /// KIR2DS3 /// KIR2DS4 /// KIR3DL3 /// KIR3DL3 /// KIR3DS1 (11738374_at) / Fold change /veh KIR2DL2 /// KIR2DL4 /// KIR2DL5A /// KIR2DL5B /// KIR2DS1 /// KIR2DS2 /// KIR2DS3 /// KIR2DS4 /// KIR3DL3 /// KIR3DL3 /// KIR3DS1 (11738374_at) / RFU C1QL1 (11718748_at) / Fold change /veh C1QL1 (11718748_at) / RFU TMPRSS4 (11747572_a_at) / Fold change /veh TMPRSS4 (11747572_a_at) / RFU HAMP (11756126_x_at) / Fold change /veh HAMP (11756126_x_at) / RFU RNFT2 (11725882_a_at) / Fold change /veh RNFT2 (11725882_a_at) / RFU NR4A2 (11747474_a_at) / Fold change /veh NR4A2 (11747474_a_at) / RFU ABCC12 (11746883_a_at) / Fold change /veh ABCC12 (11746883_a_at) / RFU TMEM136 (11760407_x_at) / Fold change /veh TMEM136 (11760407_x_at) / RFU CLDN22 /// WWC2 (11732394_at) / Fold change /veh CLDN22 /// WWC2 (11732394_at) / RFU HLA-DPB1 (11760878_x_at) / Fold change /veh HLA-DPB1 (11760878_x_at) / RFU SPINT1 (11716480_a_at) / Fold change /veh SPINT1 (11716480_a_at) / RFU GAP43 (11754022_s_at) / Fold change /veh GAP43 (11754022_s_at) / RFU A4GNT (11735810_at) / Fold change /veh A4GNT (11735810_at) / RFU PRB3 (11715151_x_at) / Fold change /veh PRB3 (11715151_x_at) / RFU TUBB4B (11761932_at) / Fold change /veh TUBB4B (11761932_at) / RFU CAPN14 (11732068_a_at) / Fold change /veh CAPN14 (11732068_a_at) / RFU TMCC2 (11721928_a_at) / Fold change /veh TMCC2 (11721928_a_at) / RFU IRGQ (11745062_a_at) / Fold change /veh IRGQ (11745062_a_at) / RFU FAM174B (11720279_a_at) / Fold change /veh FAM174B (11720279_a_at) / RFU TMPRSS4 (11748680_a_at) / Fold change /veh TMPRSS4 (11748680_a_at) / RFU FAM212B (11763350_a_at) / Fold change /veh FAM212B (11763350_a_at) / RFU PLEKHG5 (11743358_a_at) / Fold change /veh PLEKHG5 (11743358_a_at) / RFU ZSCAN30 (11745921_a_at) / Fold change /veh ZSCAN30 (11745921_a_at) / RFU CMKLR1 (11741424_a_at) / Fold change /veh CMKLR1 (11741424_a_at) / RFU LOC101060620 /// MAPK8IP1 (11723275_at) / Fold change /veh LOC101060620 /// MAPK8IP1 (11723275_at) / RFU SPTSSB (11747773_x_at) / Fold change /veh SPTSSB (11747773_x_at) / RFU PRSS12 (11739890_at) / Fold change /veh PRSS12 (11739890_at) / RFU BIN1 (11741810_x_at) / Fold change /veh BIN1 (11741810_x_at) / RFU WNT11 (11732464_a_at) / Fold change /veh WNT11 (11732464_a_at) / RFU C10orf10 (11716521_a_at) / Fold change /veh C10orf10 (11716521_a_at) / RFU C5orf56 (11738089_at) / Fold change /veh C5orf56 (11738089_at) / RFU CYB561 (11721691_x_at) / Fold change /veh CYB561 (11721691_x_at) / RFU ANKRD19P (11752326_a_at) / Fold change /veh ANKRD19P (11752326_a_at) / RFU OR2T12 /// OR2T33 /// OR2T8 (11738714_s_at) / Fold change /veh OR2T12 /// OR2T33 /// OR2T8 (11738714_s_at) / RFU VCAN (11748164_a_at) / Fold change /veh VCAN (11748164_a_at) / RFU JSRP1 (11732532_at) / Fold change /veh JSRP1 (11732532_at) / RFU KRTAP10-11 (11738290_x_at) / Fold change /veh KRTAP10-11 (11738290_x_at) / RFU MYO3A (11730013_a_at) / Fold change /veh MYO3A (11730013_a_at) / RFU EBF3 (11725865_a_at) / Fold change /veh EBF3 (11725865_a_at) / RFU CAMK2N1 (11719241_x_at) / Fold change /veh CAMK2N1 (11719241_x_at) / RFU C5orf56 (11738088_a_at) / Fold change /veh C5orf56 (11738088_a_at) / RFU OLFML3 (11715873_a_at) / Fold change /veh OLFML3 (11715873_a_at) / RFU LOC100653217 /// NTM (11731650_a_at) / Fold change /veh LOC100653217 /// NTM (11731650_a_at) / RFU MAPK11 (11762145_a_at) / Fold change /veh MAPK11 (11762145_a_at) / RFU FIZ1 (11724087_x_at) / Fold change /veh FIZ1 (11724087_x_at) / RFU OASL (11726364_x_at) / Fold change /veh OASL (11726364_x_at) / RFU SOX15 (11748057_x_at) / Fold change /veh SOX15 (11748057_x_at) / RFU CD79A (11719716_a_at) / Fold change /veh CD79A (11719716_a_at) / RFU HIST1H1D (11736915_at) / Fold change /veh HIST1H1D (11736915_at) / RFU CASKIN2 (11723855_a_at) / Fold change /veh CASKIN2 (11723855_a_at) / RFU LOC730098 (11760151_x_at) / Fold change /veh LOC730098 (11760151_x_at) / RFU OR4N2 (11742367_at) / Fold change /veh OR4N2 (11742367_at) / RFU PRRT2 (11749266_a_at) / Fold change /veh PRRT2 (11749266_a_at) / RFU SNX32 (11753110_a_at) / Fold change /veh SNX32 (11753110_a_at) / RFU CDHR5 (11726645_a_at) / Fold change /veh CDHR5 (11726645_a_at) / RFU RCAN1 (11760418_a_at) / Fold change /veh RCAN1 (11760418_a_at) / RFU FAM167A (11723789_a_at) / Fold change /veh FAM167A (11723789_a_at) / RFU FAM26E (11764081_at) / Fold change /veh FAM26E (11764081_at) / RFU ISYNA1 (11749810_s_at) / Fold change /veh ISYNA1 (11749810_s_at) / RFU ACY1 (11761880_at) / Fold change /veh ACY1 (11761880_at) / RFU 11764098_at / Fold change /veh 11764098_at / RFU SAMD14 (11745864_x_at) / Fold change /veh SAMD14 (11745864_x_at) / RFU NPB (11741838_a_at) / Fold change /veh NPB (11741838_a_at) / RFU TMPRSS6 (11731388_a_at) / Fold change /veh TMPRSS6 (11731388_a_at) / RFU KRTAP10-2 (11738614_at) / Fold change /veh KRTAP10-2 (11738614_at) / RFU ARHGAP8 /// PRR5-ARHGAP8 (11727945_x_at) / Fold change /veh ARHGAP8 /// PRR5-ARHGAP8 (11727945_x_at) / RFU KRTAP5-7 /// NADSYN1 (11734609_at) / Fold change /veh KRTAP5-7 /// NADSYN1 (11734609_at) / RFU RASL12 (11751679_a_at) / Fold change /veh RASL12 (11751679_a_at) / RFU CDKN2B (11736163_a_at) / Fold change /veh CDKN2B (11736163_a_at) / RFU PRF1 (11729649_at) / Fold change /veh PRF1 (11729649_at) / RFU, ZNF638 /// ZNF638-IT1 / Fold change vs veh, ZNF638 /// ZNF638-IT1 / RFU, PANK3 / Fold change vs veh, PANK3 / RFU, SH3YL1 / Fold change vs veh, SH3YL1 / RFU, ZEB2 / Fold change vs veh, ZEB2 / RFU, NRIP1 / Fold change vs veh, NRIP1 / RFU, PTTG1IP / Fold change vs veh, PTTG1IP / RFU, CAPN2 / Fold change vs veh, CAPN2 / RFU, MED14 / Fold change vs veh, MED14 / RFU, SNORA58 / Fold change vs veh, SNORA58 / RFU, C1orf63 / Fold change vs veh, C1orf63 / RFU, LRRFIP1 / Fold change vs veh, LRRFIP1 / RFU, NDUFAF7 / Fold change vs veh, NDUFAF7 / RFU, SLC12A2 / Fold change vs veh, SLC12A2 / RFU, IBTK / Fold change vs veh, IBTK / RFU, ESF1 / Fold change vs veh, ESF1 / Fold change vs veh, TMEM50B / RFU, TAOK1 / Fold change vs veh, TAOK1 / RFU, ACBD3 / Fold change vs veh, ACBD3 / RFU, TMA16 / Fold change vs veh, TMA16 / RFU, RWDD3 / Fold change vs veh, RWDD3 / RFU, BCAT1 / Fold change vs veh, BCAT1 / RFU, EDEM3 / Fold change vs veh, EDEM3 / RFU, TMEM33 / Fold change vs veh, TMEM33 / RFU, WDR75 / Fold change vs veh, WDR75 / RFU, AHCTF1 / Fold change vs veh, AHCTF1 / RFU, TFRC / Fold change vs veh, TFRC / RFU, ZDHHC17 / Fold change vs veh, ZDHHC17 / RFU, NOM1 / Fold change vs veh, NOM1 / RFU, ARL8B / Fold change vs veh, ARL8B / RFU, ZBTB11 / Fold change vs veh, ZBTB11 / RFU, TAMM41 / Fold change vs veh, TAMM41 / RFU, KIAA1704 /// LOC100996395 / Fold change vs veh, KIAA1704 /// LOC100996395 / RFU, ING1 / Fold change vs veh, ING1 / RFU, TRMT61B / Fold change vs veh, TRMT61B / RFU, FUBP3 / Fold change vs veh, FUBP3 / RFU, TP53 / Fold change vs veh, TP53 / RFU, TNKS2 / Fold change vs veh, TNKS2 / RFU, ZFP14 / Fold change vs veh, ZFP14 / RFU, ACTR2 / Fold change vs veh, ACTR2 / RFU, PPP3R1 / Fold change vs veh, PPP3R1 / RFU, PIK3R1 / Fold change vs veh, PIK3R1 / RFU, HNRNPA1 / Fold change vs veh, HNRNPA1 / RFU, RNF170 / Fold change vs veh, RNF170 / RFU, ZNF28 / Fold change vs veh, ZNF28 / RFU, RNGTT / Fold change vs veh, RNGTT / RFU, OGT / Fold change vs veh, OGT / RFU, BRD1 / Fold change vs veh, BRD1 / RFU, MARS / Fold change vs veh, MARS / RFU, ZNF655 / Fold change vs veh, ZNF655 / RFU, FAHD1 / Fold change vs veh, FAHD1 / RFU, BDP1 / Fold change vs veh, BDP1 / RFU, LRRCC1 / Fold change vs veh, LRRCC1 / RFU, ARID1A / Fold change vs veh, ARID1A / RFU, ZNF146 / Fold change vs veh, ZNF146 / RFU, ZNF330 / Fold change vs veh, ZNF330 / RFU, GPN3 / Fold change vs veh, GPN3 / RFU, C9orf123 / Fold change vs veh, C9orf123 / RFU, N4BP2L2 / Fold change vs veh, N4BP2L2 / RFU, ARFIP1 / Fold change vs veh, ARFIP1 / RFU, FAM179B / Fold change vs veh, FAM179B / RFU, BCL10 / Fold change vs veh, BCL10 / RFU, UHRF1BP1L / Fold change vs veh, UHRF1BP1L / RFU, BET1 / Fold change vs veh, BET1 / RFU, CNOT2 / Fold change vs veh, CNOT2 / RFU, ZNF268 / Fold change vs veh, ZNF268 / Fold change vs veh, ZNF507 / RFU, DGCR2 / Fold change vs veh, DGCR2 / RFU, WDSUB1 / Fold change vs veh, WDSUB1 / Fold change vs veh, HSP90B1 /// MIR3652 / RFU, ADSS / Fold change vs veh, ADSS / RFU, GK / Fold change vs veh, GK / RFU, ZNF148 / Fold change vs veh, ZNF148 / RFU, TAF9 / Fold change vs veh, TAF9 / RFU, SLC1A5 / Fold change vs veh, SLC1A5 / RFU, SLMO2 / Fold change vs veh, SLMO2 / RFU, ABCC4 / Fold change vs veh, ABCC4 / RFU, LOC101060439 /// RAP1B / Fold change vs veh, LOC101060439 /// RAP1B / RFU, RFX7 / Fold change vs veh, RFX7 / RFU, GTPBP10 / Fold change vs veh, GTPBP10 / RFU, CNEP1R1 / Fold change vs veh, CNEP1R1 / RFU, BIVM-ERCC5 /// ERCC5 / Fold change vs veh, BIVM-ERCC5 /// ERCC5 / RFU, ILF3 / Fold change vs veh, ILF3 / RFU 11762660_at / Fold change /veh 11762660_at / RFU VCAN (11757783_s_at) / Fold change /veh VCAN (11757783_s_at) / RFU DDX43 (11728927_at) / Fold change /veh DDX43 (11728927_at) / RFU KRT8 (11758188_x_at) / Fold change /veh KRT8 (11758188_x_at) / RFU NKD1 (11759106_at) / Fold change /veh NKD1 (11759106_at) / RFU SRD5A1 (11742802_a_at) / Fold change /veh SRD5A1 (11742802_a_at) / RFU TPSAB1 /// TPSB2 (11721975_s_at) / Fold change /veh TPSAB1 /// TPSB2 (11721975_s_at) / RFU GSTM3 (11746129_a_at) / Fold change /veh GSTM3 (11746129_a_at) / RFU IL23R (11737362_x_at) / Fold change /veh IL23R (11737362_x_at) / RFU TMEM51 (11727254_a_at) / Fold change /veh TMEM51 (11727254_a_at) / RFU PIWIL2 (11732686_x_at) / Fold change /veh PIWIL2 (11732686_x_at) / RFU ORM1 (11744905_x_at) / Fold change /veh ORM1 (11744905_x_at) / RFU CCDC152 (11743942_at) / Fold change /veh CCDC152 (11743942_at) / RFU ECM1 (11717891_a_at) / Fold change /veh ECM1 (11717891_a_at) / RFU IL23R (11748794_a_at) / Fold change /veh IL23R (11748794_a_at) / RFU TNFAIP8L3 (11732012_x_at) / Fold change /veh TNFAIP8L3 (11732012_x_at) / RFU MBOAT4 (11741988_at) / Fold change /veh MBOAT4 (11741988_at) / RFU 11764193_at / Fold change /veh 11764193_at / RFU TMEM53 (11763286_at) / Fold change /veh TMEM53 (11763286_at) / RFU MAGEB2 (11727129_at) / Fold change /veh MAGEB2 (11727129_at) / RFU TMEM200A (11744735_a_at) / Fold change /veh TMEM200A (11744735_a_at) / RFU CCDC152 (11751479_a_at) / Fold change /veh CCDC152 (11751479_a_at) / RFU FAM211A (11726209_a_at) / Fold change /veh FAM211A (11726209_a_at) / RFU RGS16 (11746705_a_at) / Fold change /veh RGS16 (11746705_a_at) / RFU VCAN (11755009_s_at) / Fold change /veh VCAN (11755009_s_at) / RFU RHOB (11743442_s_at) / Fold change /veh RHOB (11743442_s_at) / RFU RGS16 (11720943_a_at) / Fold change /veh RGS16 (11720943_a_at) / RFU RGS16 (11720944_at) / Fold change /veh RGS16 (11720944_at) / RFU, VPS4B / Fold change vs veh, VPS4B / RFU, CREB1 / Fold change vs veh, CREB1 / RFU, DNAJC13 / Fold change vs veh, DNAJC13 / RFU, GNAQ / Fold change vs veh, GNAQ / RFU, CDK5R1 / Fold change vs veh, CDK5R1 / RFU, ZRANB3 / Fold change vs veh, ZRANB3 / RFU, CUL4A / Fold change vs veh, CUL4A / RFU, CCNY / Fold change vs veh, CCNY / RFU, UFL1 / Fold change vs veh, UFL1 / RFU, COG3 / Fold change vs veh, COG3 / RFU, DIAPH2 / Fold change vs veh, DIAPH2 / RFU, SKA2 / Fold change vs veh, SKA2 / RFU, AFF3 / Fold change vs veh, AFF3 / RFU, LMF1 / Fold change vs veh, LMF1 / RFU, IPO11 / Fold change vs veh, IPO11 / RFU, DFFB / Fold change vs veh, DFFB / RFU, FOXP1 / Fold change vs veh, FOXP1 / RFU, CARD8 / Fold change vs veh, CARD8 / RFU, STRN3 / Fold change vs veh, STRN3 / RFU, ADK / Fold change vs veh, ADK / RFU, RASSF2 / Fold change vs veh, RASSF2 / RFU, WIPF1 / Fold change vs veh, WIPF1 / RFU, LARP1B / Fold change vs veh, LARP1B / RFU, RASA1 / Fold change vs veh, RASA1 / RFU, RB1 / Fold change vs veh, RB1 / RFU, PPFIA1 / Fold change vs veh, PPFIA1 / RFU, MAT2A / Fold change vs veh, MAT2A / RFU, CCT5 / Fold change vs veh, CCT5 / RFU, WDR92 / Fold change vs veh, WDR92 / RFU, CUX1 / Fold change vs veh, CUX1 / RFU, TTC7A / Fold change vs veh, TTC7A / RFU, TMEM135 / Fold change vs veh, TMEM135 / RFU, DEPTOR / Fold change vs veh, DEPTOR / RFU, CPM / Fold change vs veh, CPM / RFU, DNAJB6 / Fold change vs veh, DNAJB6 / RFU, CACNA2D3 / Fold change vs veh, CACNA2D3 / RFU, DTX4 / Fold change vs veh, DTX4 / RFU, TFCP2 / Fold change vs veh, TFCP2 / RFU, GMCL1 /// GMCL1P1 / Fold change vs veh, GMCL1 /// GMCL1P1 / RFU, AEBP2 / Fold change vs veh, AEBP2 / RFU, SNHG1 /// SNORD22 /// SNORD25 /// SNORD26 /// SNORD27 /// SNORD28 /// SNORD29 /// SNORD31 / Fold change vs veh, SNHG1 /// SNORD22 /// SNORD25 /// SNORD26 /// SNORD27 /// SNORD28 /// SNORD29 /// SNORD31 / Fold change (Aza/veh), C12orf56 (ProbeSet 11735607_a_at) / Fold change (ACY-1035/veh), C12orf56 (ProbeSet 11735607_a_at) / Fold change (Aza/veh), FGFR1OP (ProbeSet 11751329_s_at) / Fold change (ACY-1035/veh), FGFR1OP (ProbeSet 11751329_s_at) / Fold change (Aza/veh), VPS36 (ProbeSet 11739960_a_at) / Fold change (ACY-1035/veh), VPS36 (ProbeSet 11739960_a_at) / RFU SYPL1 (11715823_x_at) / Fold change /veh SYPL1 (11715823_x_at) / RFU IGFBP7 (11715501_s_at) / Fold change /veh IGFBP7 (11715501_s_at) / RFU REEP3 (11722064_at) / Fold change /veh REEP3 (11722064_at) / RFU IGLL1 (11728026_x_at) / Fold change /veh IGLL1 (11728026_x_at): dose or concentration left out as unconfirmed
Conditions: ProbeSet 11730252_s_at; LIST B

In the case of `Nc1ccc(-c2cccs2)cc1NC(=O)c1ccc2c(c1)cc(C1CC1)n2CCN1CCOCC1` [ACY-1035], the “Fold change vs veh, AHCTF1” value is reported as 0.96.
